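GI50 is the concentration that inhibits growth by half. TGI: concentration producing complete growth inhibition.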
What was measured:
Assay in all cases: DTP human tumour cell line panel, 384-well format
NCI-H460 NSCLC = tested on: NCI-H460 NSCLC
PC-3 prostate = tested on: PC-3 prostate
BT-549 breast = tested on: BT-549 breast
TK-10 renal = tested on: TK-10 renal
CAKI-1 renal = tested on: CAKI-1 renal
OVCAR-3 ovarian = tested on: OVCAR-3 ovarian
NCI-H23 lung = tested on: NCI-H23 lung
MDA-MB-468 breast = tested on: MDA-MB-468 breast
ACHN renal = tested on: ACHN renal
MALME-3M melanoma = tested on: MALME-3M melanoma
LOX IMVI melanoma = tested on: LOX IMVI melanoma
NCI-H226 lung = tested on: NCI-H226 lung
MOLT-4 leukemia = tested on: MOLT-4 leukemia
DU-145 prostate = tested on: DU-145 prostate
RPMI-8226 leukemia = tested on: RPMI-8226 leukemia
OVCAR-5 ovarian = tested on: OVCAR-5 ovarian
SR leukemia = tested on: SR leukemia
HCT-116 colon = tested on: HCT-116 colon
K-562 leukemia = tested on: K-562 leukemia
UO-31 renal = tested on: UO-31 renal
MDA-MB-435 melanoma = tested on: MDA-MB-435 melanoma
SK-MEL-5 melanoma = tested on: SK-MEL-5 melanoma
HCC-2998 colon = tested on: HCC-2998 colon
T-47D breast = tested on: T-47D breast
HT29 colon = tested on: HT29 colon
HL-60(TB) leukemia = tested on: HL-60(TB) leukemia
M14 melanoma = tested on: M14 melanoma
A498 renal = tested on: A498 renal
UACC-257 melanoma = tested on: UACC-257 melanoma
CCRF-CEM leukemia = tested on: CCRF-CEM leukemia
U251 glioblastoma = tested on: U251 glioblastoma
SN12C renal = tested on: SN12C renal
KM12 colon = tested on: KM12 colon
SK-MEL-28 melanoma = tested on: SK-MEL-28 melanoma
HCT-15 colon = tested on: HCT-15 colon
COLO 205 colon = tested on: COLO 205 colon
HOP-92 NSCLC = tested on: HOP-92 NSCLC
A549 NSCLC = tested on: A549 NSCLC
UACC-62 melanoma = tested on: UACC-62 melanoma
NCI/ADR-RES ovarian = tested on: NCI/ADR-RES ovarian
NCI-H522 lung = tested on: NCI-H522 lung
OVCAR-4 ovarian = tested on: OVCAR-4 ovarian
MDA-MB-231 breast = tested on: MDA-MB-231 breast
SK-MEL-2 melanoma = tested on: SK-MEL-2 melanoma
RXF 393 renal = tested on: RXF 393 renal
NCI-H322M lung = tested on: NCI-H322M lung
MCF7 breast = tested on: MCF7 breast
786-0 renal = tested on: 786-0 renal
SF-295 CNS = tested on: SF-295 CNS
HOP-62 NSCLC = tested on: HOP-62 NSCLC
EKVX NSCLC = tested on: EKVX NSCLC
SK-OV-3 ovarian = tested on: SK-OV-3 ovarian
HS 578T breast = tested on: HS 578T breast
SF-268 CNS = tested on: SF-268 CNS
SW-620 colon = tested on: SW-620 colon
SF-539 CNS = tested on: SF-539 CNS
SNB-75 CNS = tested on: SNB-75 CNS
IGROV1 ovarian = tested on: IGROV1 ovarian
SNB-19 CNS = tested on: SNB-19 CNS

C[C@@H](N)C1CCC(C(=O)Nc2ccncc2)CC1 (stereo partly drawn)
GI50 (NCI-H460 NSCLC): > 100 µM | TGI (NCI-H460 NSCLC): > 100 µM | GI50 (PC-3 prostate): > 100 µM | TGI (PC-3 prostate): > 100 µM | GI50 (BT-549 breast): 25.9 µM | TGI (BT-549 breast): > 100 µM | GI50 (TK-10 renal): > 100 µM | TGI (TK-10 renal): > 100 µM | GI50 (CAKI-1 renal): > 100 µM | TGI (CAKI-1 renal): > 100 µM | GI50 (OVCAR-3 ovarian): > 100 µM | TGI (OVCAR-3 ovarian): > 100 µM | GI50 (NCI-H23 lung): > 100 µM | TGI (NCI-H23 lung): > 100 µM | GI50 (MDA-MB-468 breast): 31 µM | TGI (MDA-MB-468 breast): > 100 µM | GI50 (ACHN renal): > 100 µM | TGI (ACHN renal): > 100 µM | GI50 (MALME-3M melanoma): > 100 µM | TGI (MALME-3M melanoma): > 100 µM | GI50 (LOX IMVI melanoma): > 100 µM | TGI (LOX IMVI melanoma): > 100 µM | GI50 (NCI-H226 lung): > 100 µM | TGI (NCI-H226 lung): > 100 µM | GI50 (MOLT-4 leukemia): 50.7 µM | TGI (MOLT-4 leukemia): > 100 µM | GI50 (DU-145 prostate): > 100 µM | TGI (DU-145 prostate): > 100 µM | GI50 (RPMI-8226 leukemia): 88.4 µM | TGI (RPMI-8226 leukemia): > 100 µM | GI50 (OVCAR-5 ovarian): > 100 µM | TGI (OVCAR-5 ovarian): > 100 µM | GI50 (SR leukemia): 7.94 µM | TGI (SR leukemia): 21.9 µM | GI50 (HCT-116 colon): > 100 µM | TGI (HCT-116 colon): > 100 µM | GI50 (K-562 leukemia): 39.9 µM | TGI (K-562 leukemia): > 100 µM | GI50 (UO-31 renal): > 100 µM | TGI (UO-31 renal): > 100 µM | GI50 (MDA-MB-435 melanoma): > 100 µM | TGI (MDA-MB-435 melanoma): > 100 µM | GI50 (SK-MEL-5 melanoma): > 100 µM | TGI (SK-MEL-5 melanoma): > 100 µM | GI50 (HCC-2998 colon): 85.3 µM | TGI (HCC-2998 colon): > 100 µM | GI50 (T-47D breast): 99.3 µM | TGI (T-47D breast): > 100 µM | GI50 (HT29 colon): 68.4 µM | TGI (HT29 colon): > 100 µM | GI50 (HL-60(TB) leukemia): 64 µM | TGI (HL-60(TB) leukemia): > 100 µM | GI50 (M14 melanoma): > 100 µM | TGI (M14 melanoma): > 100 µM | GI50 (A498 renal): > 100 µM | TGI (A498 renal): > 100 µM | GI50 (UACC-257 melanoma): > 100 µM | TGI (UACC-257 melanoma): > 100 µM | GI50 (CCRF-CEM leukemia): > 100 µM | TGI (CCRF-CEM leukemia): > 100 µM | GI50 (U251 glioblastoma): 87.8 µM | TGI (U251 glioblastoma): > 100 µM | GI50 (SN12C renal): > 100 µM | TGI (SN12C renal): > 100 µM | GI50 (KM12 colon): > 100 µM | TGI (KM12 colon): > 100 µM | GI50 (SK-MEL-28 melanoma): > 100 µM | TGI (SK-MEL-28 melanoma): > 100 µM | GI50 (HCT-15 colon): > 100 µM | TGI (HCT-15 colon): > 100 µM | GI50 (COLO 205 colon): > 100 µM | TGI (COLO 205 colon): > 100 µM | GI50 (HOP-92 NSCLC): 75.8 µM | TGI (HOP-92 NSCLC): > 100 µM | GI50 (A549 NSCLC): > 100 µM | TGI (A549 NSCLC): > 100 µM | GI50 (UACC-62 melanoma): > 100 µM | TGI (UACC-62 melanoma): > 100 µM | GI50 (NCI/ADR-RES ovarian): > 100 µM | TGI (NCI/ADR-RES ovarian): > 100 µM | GI50 (NCI-H522 lung): > 100 µM | TGI (NCI-H522 lung): > 100 µM | GI50 (OVCAR-4 ovarian): > 100 µM | TGI (OVCAR-4 ovarian): > 100 µM | GI50 (MDA-MB-231 breast): > 100 µM | TGI (MDA-MB-231 breast): > 100 µM | GI50 (SK-MEL-2 melanoma): > 100 µM | TGI (SK-MEL-2 melanoma): > 100 µM | GI50 (RXF 393 renal): 40.9 µM | TGI (RXF 393 renal): > 100 µM | GI50 (NCI-H322M lung): > 100 µM | TGI (NCI-H322M lung): > 100 µM | GI50 (MCF7 breast): 60.3 µM | TGI (MCF7 breast): > 100 µM | GI50 ([…]-0 renal): > 100 µM | TGI (786-0 renal): > 100 µM | GI50 (SF-295 CNS): 77.8 µM | TGI (SF-295 CNS): > 100 µM | GI50 (HOP-62 NSCLC): 77.4 µM | TGI (HOP-62 NSCLC): > 100 µM | GI50 (EKVX NSCLC): > 100 µM | TGI (EKVX NSCLC): > 100 µM | GI50 (SK-OV-3 ovarian): > 100 µM | TGI (SK-OV-3 ovarian): > 100 µM | GI50 (HS 578T breast): 38.5 µM | TGI (HS 578T breast): > 100 µM | GI50 (SF-268 CNS): 69.7 µM | TGI (SF-268 CNS): > 100 µM | GI50 (SW-620 colon): 92 µM | TGI (SW-620 colon): > 100 µM | GI50 (SF-539 CNS): > 100 µM | TGI (SF-539 CNS): > 100 µM | GI50 (SNB-75 CNS): 55.9 µM | TGI (SNB-75 CNS): > 100 µM | GI50 (IGROV1 ovarian): 80 µM | TGI (IGROV1 ovarian): > 100 µM | GI50 (SNB-19 CNS): > 100 µM | TGI (SNB-19 CNS): > 100 µM

Source: PubChem BioAssay (NCI)
